Laboratory results from patent publication EP0012729A1, “Therapeutic compositions containing as active compound a substituted acetic acid or its salt” ("IBIS" ISTITUTO BIOCHIMICO SPERIMENTALE S.p.A., priority 1978, dated 1980).

System: Wistar rats
Test: Choleretic activity in the rat, bile fistula method
Assay type: in vivo
Details: for R.S. (dry residue): pooled bile; for ml of bile flow ± s.e.: second series
Description: It is known that the primary effect of a choleretic agent is to increase the bile flow and the quantity of solid substances excreted with the bile. A good choleretic must provide this effect in a sufficiently intense and prolonged manner. In addition, as in the case of all drugs, it must have low acute toxicity and good general tolerability, but in particular must be free from toxic effects on the organ on which it is required to act, i.e. the liver, whether this is in a normal or pathological state. The analysis of the new product in comparison with the best known products for the same therapeutic use has therefore been focused on these aspects. The choleretic activity of the new product has been determined in the rat by using the bile fistula method. Wistar rats of both sexes and having a weight of between 180 and 240 g were used.
The animals, which were kept fasting for 12 hours but with free access to water, were narcotised by ethyl urethane in a dose of 1 g/kg by intra peritoneal or intramuscular injection.
After binding the animals to the retention bed, a median laparatomy was carried out, and when the bile duct had been isolated a cannula needle was inserted into it. A polythene tube was then inserted into those ani mals which were to receive the products intraduodenally, after which a su ture was carried out on the abdominal wall, and the bile was allowed to discharge for 30 minutes after inserting the cannula in the bile duct, so as to allow the discharge to become normal. The bile was then collec ted for one hour.
Having determined the volume of bile discharged during this first hour of collection (base volume), the products under examination were administered at the predetermined doses and by the predetermined methods. The bile excreted by the individual animals was then collected over each hour for a further six hours.
During the experiments, the animals were kept at ambient temperature of about 22°C, and at regular intervals of two hours received 10 ml/kg of physiological solution s.c.
The liquids were administered at a temperature of 37°C.
The bile flow and cholesterol excretion were determined on those bile fractions excreted by the animals over each hour starting from the base hour until the end of the experiment
The dry residue (R.So) was determined on the bile fraction excreted during the base hour and on the total bile fractions excreted during the sub sequent hours. For practical reasons, the determination of the dry residue and of the cholesterol (carried out by the Sperry & Webb method) were carried out on the pool of bile excreted by the entire group of animals subjected to the same treatment instead of on the bile fractions excreted by the individual animals (which was sometimes insufficient for determining the cholesterol).
In compiling the graphs, the differences between the choleresis in the treated animals and that in the controls was calculated over the considered time intervals, and expressed as a percentage of the base choleresis. For this calculation, the following formula was used: [formula] where Cn and C' represent the choleresis (in ml/kg/h for the bile flow, and in mg/kg/h for the dry residue) determined over the considered time interval for the group of treated animals and the group of controls respectively. Cb and C'b represent the base choleresis in the group of treated animals and group of controls respectively.
This index was calculated as the time for halving the maximum choleresis increase recorded under their effect.

## C[C@H](CCC(=O)O)[C@H]1CC[C@H]2[C@@H]3C(=O)C[C@@H]4CC(=O)CC[C@]4(C)[C@H]3CC(=O)[C@]12C [Dehydrocholic acid, dehydrocholic acid]
25 mg/kg p.o., 0 (base hour)
  Flow: 2,46±0,05 ml/kg/h
  R.S. (dry residue): 59,8 mg/kg/h
25 mg/kg p.o., 1h
  Flow: 3,33±0,14 ml/kg/h
  R.S. (dry residue): 84,1 mg/kg/h
25 mg/kg p.o., 2h
  Flow: 1,88±0,14 ml/kg/h
25 mg/kg p.o., 3h
  Flow: 2,19±0,15 ml/kg/h
25 mg/kg p.o., 4h
  Flow: 1,92±0,17 ml/kg/h
25 mg/kg p.o., 5h
  Flow: 1,77±0,16 ml/kg/h
25 mg/kg p.o., 6h
  Flow: 1,29±0,15 ml/kg/h
25 mg/kg p.o., subsequent hours 2h-6h
  R.S. (dry residue): 41,0 mg/kg/h
50 mg/kg i.d., 0 (base hour)
  Flow: 2,31±0,15 ml/kg/h
  R.S. (dry residue): 61,9 mg/kg/h
50 mg/kg i.d., 1 h
  Flow: 3,82±0,26 ml/kg/h
  R.S. (dry residue): 98,5 mg/kg/h
50 mg/kg i.d., 2 h
  Flow: 2,51±0,17 ml/kg/h
50 mg/kg i.d., 3 h
  Flow: 2,63±0,19 ml/kg/h
50 mg/kg i.d., 4 h
  Flow: 1,93±0,12 ml/kg/h
50 mg/kg i.d., 5 h
  Flow: 1,87±0,13 ml/kg/h
50 mg/kg i.d., 6 h
  Flow: 1,45±0,14 ml/kg/h
50 mg/kg i.d., subsequent hours 2h-6h (printed under 4 h)
  R.S. (dry residue): 44,5 mg/kg/h
100 mg/kg i.d., 0 (base hour)
  Flow: 1,80±0,09 ml/kg/h
  R.S. (dry residue): 52,3 mg/kg/h
100 mg/kg i.d., 1 h
  Flow: 4,59±0,24 ml/kg/h
  R.S. (dry residue): 147,0 mg/kg/h
100 mg/kg i.d., 2 h
  Flow: 2,45±0,10 ml/kg/h
100 mg/kg i.d., 3 h
  Flow: 1,98±0,09 ml/kg/h
100 mg/kg i.d., 4 h
  Flow: 1,82±0,09 ml/kg/h
100 mg/kg i.d., 5 h
  Flow: 1,82+0,08 ml/kg/h
100 mg/kg i.d., 6 h
  Flow: 1,55±0,08 ml/kg/h
100 mg/kg i.d., subsequent hours 2h-6h (printed under 4 h)
  R.S. (dry residue): 49,9 mg/kg/h
100 mg/kg p.o., 0 (base hour)
  Flow: 2,23±0,22 ml/kg/h
  R.S. (dry residue): 55,4 mg/kg/h
100 mg/kg p.o., 1h
  Flow: 3,75±0,75 ml/kg/h
  R.S. (dry residue): 98,6 mg/kg/h
100 mg/kg p.o., 2h
  Flow: 2,60±0,24 ml/kg/h
100 mg/kg p.o., 3h
  Flow: 2,15±0,28 ml/kg/h
100 mg/kg p.o., 4h
  Flow: 2,10±0,24 ml/kg/h
100 mg/kg p.o., 5h
  Flow: 1,64±0,20 ml/kg/h
100 mg/kg p.o., 6h
  Flow: 1,64±0,24 ml/kg/h
100 mg/kg p.o., subsequent hours 2h-6h
  R.S. (dry residue): 45,5 mg/kg/h
200 mg/kg i.d., 0 (base hour)
  Flow: 2,28±0,09 ml/kg/h
  R.S. (dry residue): 71,0 mg/kg/h
200 mg/kg i.d., 1 h
  Flow: 8,10±0,38 ml/kg/h
  R.S. (dry residue): 255,0 mg/kg/h
200 mg/kg i.d., 2 h
  Flow: 3,76±0,10 ml/kg/h
200 mg/kg i.d., 3 h
  Flow: 2,69±0,07 ml/kg/h
200 mg/kg i.d., 4 h
  Flow: 2,77±0,13 ml/kg/h
200 mg/kg i.d., 5 h
  Flow: 2,34±0,11 ml/kg/h
200 mg/kg i.d., 6 h
  Flow: 2,16±0,08 ml/kg/h
200 mg/kg i.d., subsequent hours 2h-6h (printed under 4 h)
  R.S. (dry residue): 67,0 mg/kg/h
200 mg/kg p.o. (dose given for 1620 only)
  Peak choleresis time of appearance: 1st hour
200 mg/kg p.o. (dose given for 1620 only), increase over controls as percentage of base choleresis
  Peak choleresis % increase: 94%
200 mg/kg p.o. (dose given for 1620 only), time for halving the maximum choleresis increase
  Duration index: 45'
200 mg/kg p.o., 0 (base hour)
  Flow: 2,75±0,17 ml/kg/h
  R.S. (dry residue): 85,8 mg/kg/h
200 mg/kg p.o., 1h
  Flow: 5,39±0,24 ml/kg/h
  R.S. (dry residue): 171,9 mg/kg/h
200 mg/kg p.o., 2h
  Flow: 3,50±0,13 ml/kg/h
200 mg/kg p.o., 3h
  Flow: 2,64±0,19 ml/kg/h
200 mg/kg p.o., 4h
  Flow: 2,78±0,18 ml/kg/h
200 mg/kg p.o., 5h
  Flow: 2,61±0,13 ml/kg/h
200 mg/kg p.o., 6h
  Flow: 2,38±0,14 ml/kg/h
200 mg/kg p.o., subsequent hours 2h-6h
  R.S. (dry residue): 74,9 mg/kg/h
400 mg/kg p.o., 0 (base hour)
  Flow: 2,53±0,10 ml/kg/h
  R.S. (dry residue): 71,8 mg/kg/h
400 mg/kg p.o., 1h
  Flow: 7,68±0,20 ml/kg/h
  R.S. (dry residue): 238,6 mg/kg/h
400 mg/kg p.o., 2h
  Flow: 4,70±0,45 ml/kg/h
400 mg/kg p.o., 3h
  Flow: 3,06±0,15 ml/kg/h
400 mg/kg p.o., 4h
  Flow: 2,59±0,16 ml/kg/h
400 mg/kg p.o., 5h
  Flow: 2,29±0,12 ml/kg/h
400 mg/kg p.o., 6h
  Flow: 1,97±0,15 ml/kg/h
400 mg/kg p.o., subsequent hours 2h-6h
  R.S. (dry residue): 77,8 mg/kg/h
Oral by gastric probe 25 mg/kg, 0 (base values)
  ml of bile flow ± s.e.: 2,4±0,21 ml
Oral by gastric probe 25 mg/kg, 1 h
  ml of bile flow ± s.e.: 3,0±0,25 ml
Oral by gastric probe 25 mg/kg, 2 h
  ml of bile flow ± s.e.: 2,0±0,12 ml
Oral by gastric probe 25 mg/kg, 3 h
  ml of bile flow ± s.e.: 1,9±0,11 ml
Oral by gastric probe 25 mg/kg, 4 h
  ml of bile flow ± s.e.: 1,7±0,13 ml
Oral by gastric probe 25 mg/kg, 5 h
  ml of bile flow ± s.e.: 1,7±0,10 ml
Oral by gastric probe 25 mg/kg, 6 h
  ml of bile flow ± s.e.: 1,4±0,11 ml
Oral by gastric probe 50 mg/kg, 0 (base values)
  ml of bile flow ± s.e.: 2,5±0,16 ml
Oral by gastric probe 50 mg/kg, 1 h
  ml of bile flow ± s.e.: 3,9±0,18 ml
Oral by gastric probe 50 mg/kg, 2 h
  ml of bile flow ± s.e.: 2,1±0,16 ml
Oral by gastric probe 50 mg/kg, 3 h
  ml of bile flow ± s.e.: 1,9±0,14 ml
Oral by gastric probe 50 mg/kg, 4 h
  ml of bile flow ± s.e.: 1,8±0,17 ml
Oral by gastric probe 50 mg/kg, 5 h
  ml of bile flow ± s.e.: 1,7±0,11 ml
Oral by gastric probe 50 mg/kg, 6 h
  ml of bile flow ± s.e.: 1,5±0,13 ml
